The target of the test is Hepatocyte growth factor receptor (Homo sapiens, UniProt P08581). Kind of test: HTRF Kinase Inhibition Assay. To be noted: pH 7.4; 22 °C. Here is the method:
In vitro kinase assays were done to establish IC50 values against recombinant enzymes using homogeneous time-resolved fluorescence (HTRF) assay. Molecules were tested in a 10-point serial dilution using an ATP concentration of two thirds Km values that were determined for the enzymes and calculated using the Eadie-Hofstee and Lineweaver-Burke methods. The fluorescence ratios were read on a Rubystar instrument (BMG labtech Inc.).
For orientation: Time-resolved FRET reads energy transfer from a long-lived donor to a nearby acceptor.

One may read the IC50 as the concentration that gives 50% inhibition. High values mean lower potency, low ones higher potency.

On to `COc1ccc2c(OCc3nnc4ccc(-c5cc(C)cs5)nn34)ccnc2c1` [7-methoxy-4-{[6-(4-methylthiophen-2-yl)-[1,2,4]triazolo[4,3-a]pyridazin-3-yl]methoxy}quinoline], for which the IC50 was 1 nM.
Take `COc1ccc2c(OCc3nnc4ccc(-c5cccs5)nn34)ccnc2c1` [7-methoxy-4-{[6-(thiophen-2-yl)-[1,2,4]triazolo[4,3-a]pyridazin-3-yl]methoxy}quinoline]: the IC50 turned out to be 2 nM. This IC50 lies about 2-fold higher than the previous one.
Under `COc1ccc2c(OCc3nnc4ccc(-c5ccsc5)nn34)ccnc2c1` [7-methoxy-4-{[6-(thiophen-3-yl)-[1,2,4]triazolo[4,3-a]pyridazin-3-yl]methoxy}quinoline] stands 4 nM.
